Reference: patent US7041307B2, “Biocide-polyester concentrates and biocidal compositions prepared therefrom” (Ciba Specialty Chemicals Corporation, priority 1999, dated 2006)

Experiment: Yellowness index (ASTM D1925) of polypropylene plaques after multiple pass extrusion, biocide as neat powder or polyester concentrate (Example 2)
Type: physicochemical
Conditions: polypropylene plaque
Text: Polypropylene homopolymer (PRO-FAX® 6501, Montell Polyolefins, 100 parts), stabilized with 0.05 parts of neopentanetetrayl tetrakis(3,5-di-tert-butyl-4-hydroxyhydrocinnamate), 0.10 parts of tris(2,4-di-tert-butylohenyl) phosphite and 0.05 parts of calcium stearate is dry blended without a biocide; or with 0.25 parts or with 0.50 parts of 2,4,4′-trichloro-2′-hydroxydiphenyl ether (IRGASAN® or IRGAGUARD®, Ciba Specialty Chemicals Corp.) either as a neat powder or as a concentrate as prepared in Example 1. The parts of components are by weight.
The extruded pellets are compression molded into 125 mil plaques (2″×2″, 5.08 cm×5.08 cm) at 450° F. (232° C.) for nine minutes (three minutes at low pressure; three minutes at high pressure; three minutes cooling). Yellowness index (YI) values are determined on the plaques according to ASTM D1925 on a DCI SF600 spectrophotometer. An increase in yellowness corresponds to a positive increase in the YI value.

## Oc1cc(Cl)ccc1Oc1ccc(Cl)cc1Cl [Powder, 2,4,4′-trichloro-2′-hydroxydiphenyl ether]
Biocide 0.25% by wt
  Yellowness Index (YI) after multiple pass extrusion at 500° F. (260° C.) First: 8.4
  Yellowness Index (YI) after multiple pass extrusion at 550° F. (288° C.) First: 6.4
  Yellowness Index (YI) after multiple pass extrusion at 500° F. (260° C.) Second: 8.8
  Yellowness Index (YI) after multiple pass extrusion at 550° F. (288° C.) Second: 6.3
  Yellowness Index (YI) after multiple pass extrusion at 500° F. (260° C.) Third: 9.7
  Yellowness Index (YI) after multiple pass extrusion at 550° F. (288° C.) Third: 6.6
Biocide 0.50% by wt
  Yellowness Index (YI) after multiple pass extrusion at 500° F. (260° C.) First: 8.8
  Yellowness Index (YI) after multiple pass extrusion at 550° F. (288° C.) First: 7.1
  Yellowness Index (YI) after multiple pass extrusion at 500° F. (260° C.) Second: 9.7
  Yellowness Index (YI) after multiple pass extrusion at 550° F. (288° C.) Second: 7.2
  Yellowness Index (YI) after multiple pass extrusion at 500° F. (260° C.) Third: 9.2
  Yellowness Index (YI) after multiple pass extrusion at 550° F. (288° C.) Third: 7.4
